Reference: patent US12258354B2, “AhR modulators” (IDEAYA BIOSCIENCES, INC., priority 2018, dated 2025)

Molecular target: T1, hAhR (Homo sapiens, UniProt P35869)
T1 construct: Stably integrated DRE-luciferase cell lines were generated by transducing the both cell lines with Cignal XRE luciferase reporter; endogenous in cells; host or cells: HEPG2 DRE-Luc cells (only the XRE luciferase reporter was transduced)
T1 sequence (P35869 11-848): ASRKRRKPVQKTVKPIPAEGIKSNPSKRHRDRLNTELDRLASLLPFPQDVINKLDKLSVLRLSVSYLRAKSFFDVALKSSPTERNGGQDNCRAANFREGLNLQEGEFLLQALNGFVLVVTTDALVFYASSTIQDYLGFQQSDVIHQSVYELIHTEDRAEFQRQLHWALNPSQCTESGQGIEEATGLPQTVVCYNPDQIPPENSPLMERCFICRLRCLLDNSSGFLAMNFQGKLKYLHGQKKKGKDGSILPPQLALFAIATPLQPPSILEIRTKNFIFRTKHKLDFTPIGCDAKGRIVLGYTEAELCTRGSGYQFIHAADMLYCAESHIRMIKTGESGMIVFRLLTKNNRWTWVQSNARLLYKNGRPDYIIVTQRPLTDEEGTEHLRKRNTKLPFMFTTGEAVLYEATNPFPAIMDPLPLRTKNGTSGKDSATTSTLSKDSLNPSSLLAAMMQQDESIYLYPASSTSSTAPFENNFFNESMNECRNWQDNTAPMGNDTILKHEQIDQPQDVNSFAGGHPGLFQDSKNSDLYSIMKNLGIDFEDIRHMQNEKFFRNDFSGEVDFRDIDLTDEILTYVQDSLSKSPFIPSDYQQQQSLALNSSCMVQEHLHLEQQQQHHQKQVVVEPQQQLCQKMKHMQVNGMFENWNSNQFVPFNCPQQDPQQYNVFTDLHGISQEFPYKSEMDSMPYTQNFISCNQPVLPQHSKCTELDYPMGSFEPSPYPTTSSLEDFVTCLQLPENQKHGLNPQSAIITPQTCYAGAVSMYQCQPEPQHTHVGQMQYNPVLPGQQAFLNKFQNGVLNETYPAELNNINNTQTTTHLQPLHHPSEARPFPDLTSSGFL
Test: DRE-luciferase transcriptional reporter assay in HEPG2 DRE-Luc cells, TCDD-induced (antagonist mode)
Format: cell-based
Conditions: relative IC50, 3 nM TCDD, 24-hour incubation, firefly luciferase readout
Experimental: HEPG2 and HEPA1C1C7 cells were maintained in MEM and αMEM without nucleosides supplemented with 10% heat inactivated FBS respectively. Stably integrated DRE-luciferase cell lines were generated by transducing the both cell lines with Cignal XRE luciferase reporter (Qiagen) lentiviral particles according to the manufacturer protocol. For both cell lines stably integrated reporter cell lines were selected for the presence of 2 μg/mL puromycin. Following selection of stably integrated cell line pools, clonal cell lines were isolated by limiting dilution in 96-well plates. Transcriptional assays were performed by seeding 100 μL of cells at a density of 250,000 or 100,000 cells/mL, for HEPG2 and HEPA1C1C7 DRE-Luc cells respectively, into 96-well cell culture plates in OptiMEM supplemented with 0.5% heat inactivated FBS and allowed to attach overnight. For modulator assays, the compounds were added in a semi-log dose response using a D300e Digital Dispenser (Tecan) followed normalization with vehicle (DMSO). Immediately following compound addition 10 μL of 2,3,7,8-Tetrachlorodibenzo-p-dioxin (TCDD) was added to the cells to a final concentration of 3 nM or 0.3 nM for the HEPG2 and HEPA1C1C7 DRE-Luc cells respectively. Following 24-hour incubation, the medium was removed and the cells were lysed in 25 μL of Reporter Lysis Buffer (Promega). Firefly luciferase activity was measured immediately following the addition of 50 μL Luciferase Assay Reagent (Promega). The percent maximal activity for each point was determined using the following equation: (RLUsample−RLUvehicle−TCDD)/(RLUvehicle+TCDD RLUvehicle−TCDD)*100. The relative IC50, defined as the compound concentration required to reduce the TCDD induced response between the top and bottom plateau of each individual dose response curve by half, for each compound was determined using Prism 7 (GraphPad Software).

IC50, < 0.2 µM:
2-((2-hydroxy-2-azaspiro[3.3]heptan-2-yl)methyl)-3-methyl-5-(2-methyl-4-(6-(trifluoromethyl)pyrido[3,2-d]pyrimidin-2-yl)phenyl)-6,7-dihydropyrazolo[1,5-a]pyrazin-4 (5H)-one [Example 109]
Cc1cc(-c2ncc3cc(C(F)(F)F)ccc3n2)ccc1N1CCn2ncc(C)c2S1(=O)=O [Example 93, 8-methyl-2-(2-methyl-4-(6-(trifluoromethyl)quinazolin-2-yl)phenyl)-3,4-dihydro-2H-pyrazolo[1,5-e][1,2,5]thiadiazine 1,1-dioxide]
Cc1cc(-c2ncc3cc(C(F)(F)F)ccc3n2)ccc1N1CCn2ncc(C3NC(=O)NC3=O)c2C1=O (centres unmarked) [Example 94, 5-(5-(2-methyl-4-(6-(trifluoromethyl)quinazolin-2-yl)phenyl)-4-oxo-4,5,6,7-tetrahydropyrazolo[1,5-a]pyrazin-3-yl)imidazolidine-2,4-dione]
Cc1cc(-c2ncc3cc(C(F)(F)F)ccc3n2)ccc1N1CCn2nc(CN3CCO[C@H](C)C3)c(C)c2C1=O [Example 95, (R)-3-methyl-5-(2-methyl-4-(6-(trifluoromethyl)quinazolin-2-yl)phenyl)-2-((2-methylmorpholino)methyl)-6,7-dihydropyrazolo[1,5-a]pyrazin-4 (5H)-one]
Cc1cc(-c2ncc3cc(C(F)(F)F)ccc3n2)ccc1N1CCn2nc(CN3CCO[C@@H](C)C3)c(C)c2C1=O [Example 96, (S)-3-methyl-5-(2-methyl-4-(6-(trifluoromethyl)quinazolin-2-yl)phenyl)-2-((2-methylmorpholino)methyl)-6,7-dihydropyrazolo[1,5-a]pyrazin-4 (5H)-one]
Cc1cc(-c2ncc3cc(C(F)(F)F)ccc3n2)ccc1N1CCn2nc(COP(=O)(O)O)c(C)c2C1=O [Example 97, (3-methyl-5-(2-methyl-4-(6-(trifluoromethyl)quinazolin-2-yl)phenyl)-4-oxo-4,5,6,7-tetrahydropyrazolo[1,5-a]pyrazin-2-yl)methyl dihydrogen phosphate]
Cc1cc(-c2ncc3cc(C(F)(F)F)ccc3n2)ccc1N1CCn2nc(CN3CCC(=O)CC3)c(C)c2C1=O [Example 98, 3-methyl-5-(2-methyl-4-(6-(trifluoromethyl)quinazolin-2-yl)phenyl)-2-((4-oxopiperidin-1-yl)methyl)-6,7-dihydropyrazolo[1,5-a]pyrazin-4 (5H)-one]
Cc1cc(-c2ncc3cc(C(F)(F)F)ccc3n2)ccc1N1CCn2nc(CN3CCC(F)CC3)c(C)c2C1=O [Example 99, 2-((4-fluoropiperidin-1-yl)methyl)-3-methyl-5-(2-methyl-4-(6-(trifluoromethyl)-quinazolin-2-yl)phenyl)-6,7-dihydropyrazolo[1,5-a]pyrazin-4 (5H)-one]
Cc1cc(-c2ncc3cc(C(F)(F)F)ccc3n2)ccc1N1CCn2nc(CN3CCC(O)CC3)c(C)c2C1=O [Example 100, 2-((4-hydroxypiperidin-1-yl)methyl)-3-methyl-5-(2-methyl-4-(6-(trifluoromethyl)-quinazolin-2-yl)phenyl)-6,7-dihydropyrazolo[1,5-a]pyrazin-4 (5H)-one]
Cc1cc(-c2ncc3cc(C(F)(F)F)ccc3n2)ccc1N1CCn2nc(CN3CCS(=O)(=O)CC3)c(C)c2C1=O [Example 101, 2-((1,1-dioxidothiomorpholino)methyl)-3-methyl-5-(2-methyl-4-(6-(trifluoro-methyl)quinazolin-2-yl)phenyl)-6,7-dihydropyrazolo[1,5-a]pyrazin-4 (5H)-one]
Cc1cc(-c2ncc3cc(C(F)(F)F)ccc3n2)ccc1N1CCn2nc(CN3CCC4(CC3)COC4)c(C)c2C1=O [Example 102, 2-((2-oxa-7-azaspiro[3.5]nonan-7-yl)methyl)-3-methyl-5-(2-methyl-4-(6-(trifluoromethyl)quinazolin-2-yl)phenyl)-6,7-dihydropyrazolo[1,5-a]pyrazin-4 (5H)-one]
Cc1cc(-c2ncc3cc(C(F)(F)F)ccc3n2)ccc1N1CCn2nc(CN3CCN(C)CC3)c(C)c2C1=O [Example 103, 3-methyl-5-(2-methyl-4-(6-(trifluoromethyl)quinazolin-2-yl)phenyl)-2-((4-methyl-piperazin-1-yl)methyl)-6,7-dihydropyrazolo[1,5-a]pyrazin-4 (5H)-one]
Cc1cc(-c2ncc3cc(C(F)(F)F)ccc3n2)ccc1N1CCn2nc(CN3CCN(C)C(=O)C3)c(C)c2C1=O [Example 104, 3-methyl-2-((4-methyl-3-oxopiperazin-1-yl)methyl)-5-(2-methyl-4-(6-(trifluoro-methyl)quinazolin-2-yl)phenyl)-6,7-dihydropyrazolo[1,5-a]pyrazin-4 (5H)-one]
Cc1cc(-c2ncc3nc(C(F)(F)F)ccc3n2)ccc1N1CCn2nc(CN3CCOCC3)c(C)c2C1=O [Example 105, 3-methyl-5-(2-methyl-4-(6-(trifluoromethyl)pyrido[3,2-d]pyrimidin-2-yl)phenyl)-2-(morpholinomethyl)-6,7-dihydropyrazolo[1,5-a]pyrazin-4 (5H)-one]
Cc1cc(-c2ccc3nc(C(F)(F)F)ccc3n2)ccc1N1CCn2nc(CN3CCOCC3)c(C)c2C1=O [Example 106, 3-methyl-5-(2-methyl-4-(6-(trifluoromethyl)-1,5-naphthyridin-2-yl)phenyl)-2-(morpholinomethyl)-6,7-dihydropyrazolo[1,5-a]pyrazin-4 (5H)-one]
Cc1cc(-c2ncc3cc(C(F)(F)F)ccc3n2)ccc1N1CCn2nc(C(=O)N3CCN(C)CC3)c(C)c2C1=O [Example 107, 3-methyl-5-(2-methyl-4-(6-(trifluoromethyl)quinazolin-2-yl)phenyl)-2-(4-methylpiperazine-1-carbonyl)-6,7-dihydropyrazolo[1,5-a]pyrazin-4 (5H)-one]
Cc1cc(-c2ncc3cc(C(F)(F)F)ccc3n2)ccc1N1CCn2nc(CN3CCC(F)(F)CC3)c(C)c2C1=O [Example 108, 2-((4,4-difluoropiperidin-1-yl)methyl)-3-methyl-5-(2-methyl-4-(6-(trifluoro-methyl)quinazolin-2-yl)phenyl)-6,7-dihydropyrazolo[1,5-a]pyrazin-4 (5H)-one]
Cc1cc(-c2ncc3cc(C(F)(F)F)ccc3n2)ccc1N1CCn2nc(CN3CCCC4(COC4)C3)c(C)c2C1=O [Example 110, 2-((2-oxa-6-azaspiro[3.5]nonan-6-yl)methyl)-3-methyl-5-(2-methyl-4-(6-(trifluoro-methyl)quinazolin-2-yl)phenyl)-6,7-dihydropyrazolo[1,5-a]pyrazin-4 (5H)-one]
Cc1cc(-c2ncc3cc(C(F)(F)F)ccc3n2)ccc1N1CCn2nc(CN3CCC4(COC4)C3)c(C)c2C1=O [Example 111, 2-((2-oxa-6-azaspiro[3.4]octan-6-yl)methyl)-3-methyl-5-(2-methyl-4-(6-(trifluoromethyl)quinazolin-2-yl)phenyl)-6,7-dihydropyrazolo[1,5-a]pyrazin-4 (5H)-one]
Cc1cc(-c2ncc3cc(C(F)(F)F)ccc3n2)ccc1N1CCn2nc(C(C)N3CCOCC3)c(C)c2C1=O (centres unmarked) [Example 112, 3-methyl-5-(2-methyl-4-(6-(trifluoromethyl)quinazolin-2-yl)phenyl)-2-(1-morpholinoethyl)-6,7-dihydropyrazolo[1,5-a]pyrazin-4 (5H)-one]
